Tests used:
[1] = tested on: transient focal cerebral ischemia by middle cerebral artery occlusion (MCAO); experiment: Transient focal cerebral ischemia by middle cerebral artery occlusion (MCAO) in rats, infarct volume after gas inhalation; assay type: in vivo; details: rat MCAO, compared to air (mixture No. 1); for post-ischemic volume of cortical infarction: FIG. 3b; for post-ischemic volume of striatal infarction: FIG. 3c; for post-ischemic volume of oedema: FIG. 3d
Protocol: On day 1, focal ischemia was induced in each of the rats by middle cerebral artery occlusion (MCAO), for a period of 1 h 30 minutes.
The transient focal cerebral ischemia by MCAO is obtained conventionally by introducing a flexible nylon thread 1, represented diagrammatically in FIG. 1 (length 6.5 mm, diameter 180 μm), a portion 2 of the proximal end of which has a diameter greater than that of the thread (length 3 mm, diameter 380 μm), into the vascular system of the rat, as far as the region of the ipsilateral hemisphere so as to cause an embolism therein, i.e. an ischemia.
Next, the rats are reperfused for 10 to 20 minutes, and are then made to inhale several mixtures of gases, namely: • mixture No. 1: air (control) • mixture No. 2: N2O (75% vol), the remainder being oxygen (25%) • mixture No. 3: xenon (50% vol), the remainder being oxygen (20 to 25%) and nitrogen (30 to 25%), respectively • mixture No. 4: xenon (75% vol), the remainder being oxygen (25%).
On day 2, i.e. 24 hours after reperfusion, the rats are killed, the brains are recovered and frozen, and thin sections 40 μm thick are cut and then stained with cresyl violet, as shown in FIG. 5.
The volume of neuronal death is calculated, from the sections obtained after staining, in a conventional manner using an appropriate, commercially available conventional program.
In fact, as shown diagrammatically in FIG. 2, the cerebral ischemia engenders, in general, in 24 hours, an infarction in the region which has been subjected to ischemia (penumbra), leading to neuronal death in the brain cells present in a considerable portion of this region.

[2] = tested on: glutamergic receptors for N-methyl-D-aspartate, NMDA; details: in vitro, literature (Franks et al.; Jevtovic-Todorovic et al.; Yamakura and Harris); cited from earlier work
[3] = tested on: brain receptors of the NMDA type; experiment: Complementary examination of neurotoxic effects of xenon and N2O versus air on NMDA-type brain receptors (FIG. 4); assay type: in vivo
Protocol: Based on this observation, complementary examinations were carried out in order to determine the neurotoxic effects of the xenon and of the nitrous oxide (N2O), at various amounts, compared to air, on brain receptors of the NMDA type.

| SMILES | post-ischemic volume of cortical infarction [1] | post-ischemic volume of striatal infarction [1] | post-ischemic volume of oedema [1] | behaviour at NMDA receptors [2] | neuroprotection, comparison between doses ([3]; N2O at 75% by volume compared to N2O at 50%) | volume of deteriorated NMDA receptors ([3]; in vivo) | volume of deteriorated NMDA receptors ([3]; dose of 50% or 75% by volume, compared to control (air), FIG. 4) | neuroprotection, comparison between doses ([3]; xenon at 50% by volume compared to xenon at 75%) |
| --- | --- | --- | --- | --- | --- | --- | --- | --- |
| [N-]=[N+]=O [N2O, nitrous oxide] | decrease | decrease | decrease | low-affinity antagonists | more neuroprotective | smaller volume |  |  |
| [Xe] [xenon] | decrease | decrease | decrease | low-affinity antagonists |  |  | smaller volume | more neuroprotective |

From patent publication US7405241B2, “Use of N2O in the treatment of post-ischemic brain cell deterioration” (Air Liquide Sante (International), priority 2003, dated 2008)
